EP4707277A1, “NOVEL HETEROCYCLIC AMINE DERIVATIVES AND PHARMACEUTICAL COMPOSITION COMPRISING SAME” (Daewoong Pharmaceutical Co., Ltd., priority 2023, dated 2024)
Where two headings read alike, the source gives them in different places.

What was measured:
[1] = molecular target: T1, BTK (Homo sapiens, UniProt Q06187); assay: Inhibitory activity against BTK, ADP-Glo Kinase system (Promega); type: biochemical
T1 construct: purchased Signalchem B10-10H
Outline: (§1)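 IC50 values were fitted from kinase reactions run for 1 h at 30°C with either 1 mM ATP or ATP at Km (10 µM for BTK, 25 µM for ITK). Reactions used 0.2 µg/µl poly(Glu4,Tyr1), recombinant human enzyme (BTK 10 ng, ITK 4 ng per reaction) in Tris pH 7.5 Mn/Mg buffer with 1% DMSO. ADP formed was read by ADP-Glo luminescence.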

[2] = molecular target: T2, ITK (Homo sapiens, UniProt Q08881); assay: Inhibitory activity against ITK, ADP-Glo Kinase system (Promega); type: biochemical
T2 construct: purchased Signalchem I13-11G-10
T2 sequence (Q08881 1-620): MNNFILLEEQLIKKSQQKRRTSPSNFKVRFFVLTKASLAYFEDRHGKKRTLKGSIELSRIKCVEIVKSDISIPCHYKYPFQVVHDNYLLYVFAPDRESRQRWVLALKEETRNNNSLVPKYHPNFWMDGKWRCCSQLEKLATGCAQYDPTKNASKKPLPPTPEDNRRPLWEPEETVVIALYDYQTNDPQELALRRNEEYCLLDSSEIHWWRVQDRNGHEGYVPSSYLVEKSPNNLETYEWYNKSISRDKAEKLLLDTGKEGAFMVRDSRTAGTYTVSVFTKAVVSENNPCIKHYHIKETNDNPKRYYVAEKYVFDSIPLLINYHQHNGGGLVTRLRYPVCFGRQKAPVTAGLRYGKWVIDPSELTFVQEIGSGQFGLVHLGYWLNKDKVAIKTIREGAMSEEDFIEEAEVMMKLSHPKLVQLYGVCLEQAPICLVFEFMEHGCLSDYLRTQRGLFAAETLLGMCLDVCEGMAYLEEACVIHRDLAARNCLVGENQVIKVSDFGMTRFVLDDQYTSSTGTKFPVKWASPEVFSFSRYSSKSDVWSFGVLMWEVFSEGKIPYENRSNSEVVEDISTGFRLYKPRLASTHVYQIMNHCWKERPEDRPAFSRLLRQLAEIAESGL
Outline: as §1

[3] = 1mM ATP, read-out: BTK IC50(nM) 1mM ATP
[4] = 1mM ATP, read-out: ITK IC50(nM) 1mM ATP
[5] = Km ATP (BTK: 10 uM), read-out: BTK IC50(nM) Km ATP
[6] = Km ATP (ITK: 25uM), read-out: ITK IC50(nM) Km ATP

T1 sequence (Q06187 whole entry): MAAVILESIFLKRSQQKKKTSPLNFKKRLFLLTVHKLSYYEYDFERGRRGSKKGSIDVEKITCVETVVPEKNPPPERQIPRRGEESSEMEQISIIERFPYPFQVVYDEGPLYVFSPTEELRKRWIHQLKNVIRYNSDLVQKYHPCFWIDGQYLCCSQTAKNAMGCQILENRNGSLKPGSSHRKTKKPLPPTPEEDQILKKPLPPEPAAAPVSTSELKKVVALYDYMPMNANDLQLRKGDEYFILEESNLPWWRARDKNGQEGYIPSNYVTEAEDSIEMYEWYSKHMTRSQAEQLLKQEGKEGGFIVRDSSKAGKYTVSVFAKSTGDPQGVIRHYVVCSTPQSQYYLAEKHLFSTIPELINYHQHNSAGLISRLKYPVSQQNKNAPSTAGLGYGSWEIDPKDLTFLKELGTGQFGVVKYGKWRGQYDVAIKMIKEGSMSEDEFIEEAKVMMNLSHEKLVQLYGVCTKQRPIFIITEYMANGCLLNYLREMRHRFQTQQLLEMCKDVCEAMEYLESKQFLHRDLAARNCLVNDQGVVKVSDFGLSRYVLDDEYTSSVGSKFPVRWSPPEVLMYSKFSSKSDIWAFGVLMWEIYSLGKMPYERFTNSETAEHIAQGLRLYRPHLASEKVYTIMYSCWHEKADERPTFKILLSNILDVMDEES

Row | Compound | IC50 [1, 3] [nM] | IC50 [2, 4] [nM] | IC50 [1, 5] [nM] | IC50 [2, 6] [nM]
1 | C=CC(=O)N1CCCCC12CC(Oc1nc(Nc3ncc(C)s3)cc3c1ccn3CC(C)C)C2 (stereo not drawn) [Example 203, 1-(2-((1-isobutyl-6-((5-methylthiazol-2-yl)amino)-1H-pyrrolo[3,2-c]pyridin-4-yl)oxy)-5-azaspiro[3.5]nonan-5-yl)prop-2-en-1-one] | > 500 | > 500 |  | 
2 | C=CC(=O)Nc1ccc(F)c(-c2nc(Nc3ncc(C)s3)cc3c2ccn3CC2CCOC2)c1 (stereo not drawn) [Example 71, N-(4-fluoro-3-(6-((5-methylthiazol-2-yl)amino)-1-((tetrahydrofuran-3-yl)methyl)-1H-pyrrolo[3,2-c]pyridin-4-yl)phenyl)acrylamide] |  |  | ≤ 20 | ≤ 20
3 | C=CC(=O)N1CCC[C@H](Oc2nc(Nc3ncc(C)s3)cc3c2ccn3CCC)C1 [Example 160, (S)-1-(3-((6-((5-methylthiazol-2-yl)amino)-1-propyl-1H-pyrrolo[3,2-c]pyridin-4-yl)oxy)piperidin-1-yl)prop-2-en-1-one] | 100 to 500 | 100 to 500 |  | 
4 | C=CC(=O)N1CC=C(c2nc(Nc3ncc(C)s3)cc3c2ccn3CCC(C)(C)C)CC1 [Example 18, 1-(4-(1-(3,3-dimethylbutyl)-6-((5-methylthiazol-2-yl)amino)-1H-pyrrolo[3,2-c]pyridin-4-yl)-3,6-dihydropyridin-1(2H)-yl)prop-2-en-1-one] |  |  | 20 to 100 | ≤ 20
5 | C=CC(=O)N1C[C@H](F)[C@H](Oc2nc(Nc3cc[nH]n3)cc3c2ccn3CC(C)C)C1 [Example 195, 1-((3R,4S)-3-((6-((1H-pyrazol-3-yl)amino)-1-isobutyl-1H-pyrrolo[3,2-c]pyridin-4-yl)oxy)-4-fluoropyrrolidin-1-yl)prop-2-en-1-one] | 20 to 100 | 100 to 500 |  | 
6 | C=CC(=O)N1CC[C@H](Oc2nc(Nc3cccn(C)c3=O)cc3c2ccn3C(C)C)C1 [Example 198, (S)-3-((4-((1-acryloylpyrrolidin-3-yl)oxy)-1-isopropyl-1H-pyrrolo[3,2-c]pyridin-6-yl)amino)-1-methylpyridin-2(1H)-one] | > 500 | > 500 |  | 
7 | C=CC(=O)N1CC(C)(Oc2nc(Nc3ncc(C)s3)cc3c2ccn3CC(C)C)C1 [Example 119, 1-(3-((1-isobutyl-6-((5-methylthiazol-2-yl)amino)-1H-pyrrolo[3,2-c]pyridin-4-yl)oxy)-3-methylazetidin-1-yl)prop-2-en-1-one] |  |  | ≤ 20 | ≤ 20
8 | C=CC(=O)N1C[C@@H](F)[C@H](Oc2nc(Nc3ncc(C)s3)cc3c2ccn3C2CCCC2)C1 [Example 110, 1-((3R,4R)-3-((1-cyclopentyl-6-((5-methylthiazol-2-yl)amino)-1H-pyrrolo[3,2-c]pyridin-4-yl)oxy)-4-fluoropyrrolidin-1-yl)prop-2-en-1-one] | ≤ 20 | ≤ 20 |  | 
9 | C=CC(=O)N1CC[C@@H](Oc2nc(Nc3ncc(C)s3)cc3c2ccn3C(C)C)C1 [Example 162, (R)-1-(3-((1-isopropyl-6-((5-methylthiazol-2-yl)amino)-1H-pyrrolo[3,2-c]pyridin-4-yl)oxy)pyrrolidin-1-yl)prop-2-en-1-one] | > 500 | > 500 |  | 
10 | C=CC(=O)Nc1cc(C)cc(-c2nc(Nc3ncc(C)s3)cc3c2ccn3C)c1 [Example 53, N-(3-methyl-5-(1-methyl-6-((5-methylthiazol-2-yl)amino)-1H-pyrrolo[3,2-c]pyridin-4-yl)phenyl)acrylamide] |  |  | ≤ 20 | 100 to 500
11 | C=CC(=O)N1CCC[C@@H](COc2nc(Nc3ncc(C)s3)cc3c2ccn3CC(C)C)C1 [Example 214, (R)-1-(3-(((1-isobutyl-6-((5-methylthiazol-2-yl)amino)-1H-pyrrolo[3,2-c]pyridin-4-yl)oxy)methyl)piperidin-1-yl)prop-2-en-1-one] | 20 to 100 | > 500 |  | 
12 | C=CC(=O)Nc1cccc(-c2nc(Nc3ncc(C)s3)cc3c2ccn3C)c1 [Example 50, N-(3-(1-methyl-6-((5-methylthiazol-2-yl)amino)-1H-pyrrolo[3,2-c]pyridin-4-yl)phenyl)acrylamide] |  |  | ≤ 20 | 20 to 100
13 | C=CC(=O)N1CC[C@H](Oc2nc(Nc3ncc(C)s3)cc3c2ccn3Cc2ccccn2)C1 [Example 117, (S)-1-(3-((6-((5-methylthiazol-2-yl)amino)-1-(pyridin-2-ylmethyl)-1H-pyrrolo[3,2-c]pyridin-4-yl)oxy)pyrrolidin-1-yl)prop-2-en-1-one] |  |  | ≤ 20 | ≤ 20
14 | C=CC(=O)N1C[C@H](F)[C@H](Oc2nc(Nc3ncc(C)s3)cc3c2ccn3CC2CC2)C1 [Example 107, 1-((3R,4S)-3-((1-(cyclopropylmethyl)-6-((5-methylthiazol-2-yl)amino)-1H-pyrrolo[3,2-c]pyridin-4-yl)oxy)-4-fluoropyrrolidin-1-yl)prop-2-en-1-one] | ≤ 20 | ≤ 20 |  | 
15 | C=CC(=O)N1CC=C(c2nc(Nc3ncc[nH]3)cc3c2ccn3C)CC1 [Example 40, 1-(4-(6-((1H-imidazol-2-yl)amino)-1-methyl-1H-pyrrolo[3,2-c]pyridin-4-yl)-3,6-dihydropyridin-1(2H)-yl)prop-2-en-1-one] |  |  | 100 to 500 | > 500
16 | C=CC(=O)N1CC(C)(Oc2nc(Nc3ncc(C)s3)cc3c2ccn3CCOC)C1 [Example 168, 1-(3-((1-(2-methoxyethyl)-6-((5-methylthiazol-2-yl)amino)-1H-pyrrolo[3,2-c]pyridin-4-yl)oxy)-3-methylazetidin-1-yl)prop-2-en-1-one] | > 500 | > 500 |  | 
17 | C=CC(=O)N1CCC[C@H]1COc1nc(Nc2ncc(C)s2)cc2c1ccn2CC(C)C [Example 85, (S)-1-(2-(((1-isobutyl-6-((5-methylthiazol-2-yl)amino)-1H-pyrrolo[3,2-c]pyridin-4-yl)oxy)methyl)pyrrolidin-1-yl)prop-2-en-1-one] | 20 to 100 | > 500 |  | 
18 | C=CC(=O)N1CC[C@H](Oc2nc(Nc3cc(C)ncn3)cc3c2ccn3C(C)C)C1 [Example 101, (S)-1-(3-((1-isopropyl-6-((6-methylpyrimidin-4-yl)amino)-1H-pyrrolo[3,2-c]pyridin-4-yl)oxy)pyrrolidin-1-yl)prop-2-en-1-one] | ≤ 20 | 20 to 100 |  | 
19 | C=CC(=O)N1CC=C(c2nc(Nc3ncc(C)s3)cc3c2ccn3C2CCCC2)CC1 [Example 5, 1-(4-(1-cyclopentyl-6-((5-methylthiazol-2-yl)amino)-1H-pyrrolo[3,2-c]pyridin-4-yl)-3,6-dihydropyridin-1(2H)-yl)prop-2-en-1-one] |  |  | ≤ 20 | ≤ 20
20 | C=CC(=O)N1CC(C)(Oc2nc(Nc3ncc(C)s3)cc3c2ccn3C2CCCC2)C1 [Example 165, 1-(3-((1-cyclopentyl-6-((5-methylthiazol-2-yl)amino)-1H-pyrrolo[3,2-c]pyridin-4-yl)oxy)-3-methylazetidin-1-yl)prop-2-en-1-one] | ≤ 20 | ≤ 20 |  | 
21 | C=CC(=O)N1CC[C@@H]1COc1nc(Nc2ncc(C)s2)cc2c1ccn2CC(F)F [Example 209, (R)-1-(2-(((1-(2,2-difluoroethyl)-6-((5-methylthiazol-2-yl)amino)-1H-pyrrolo[3,2-c]pyridin-4-yl)oxy)methyl)azetidin-1-yl)prop-2-en-1-one] | ≤ 20 | ≤ 20 |  | 
